{
  "source": "paper PMC8611018",
  "about": "“Apelin-13 in septic shock: effective in supporting hemodynamics in sheep but compromised by enzymatic breakdown in patients” (Scientific Reports, 2021)",
  "key": {"[1]": {"tested_on": "sheep APJ", "assay": "Competitive radioligand binding with [125I]-(pyr1)Apelin-13 on HEK293 cells expressing sheep APJ", "design": "species or system sheep (Ovis aries)", "conditions": "HEK293 cells with HA-tagged sheep APJ, 0.2 nM [125I]-(pyr1)APLN-13, 1 h at room temperature, n = 3; human APLN-13 compared with human ELA", "source_text": "The sequence of the apelin receptor was synthetized with gBlocks Gene Fragments (Integrated DNA Technologies, USA) and subcloned into […]1 (a modified vector in which we replaced the YFP sequence with that for two HA tags) with an NEBuilder HiFi DNA Assembly Cloning Kit (New England Biolabs, MA, USA). The Ovis aries APJ sequence was obtained from the RefSeq database (XM_027979777.1). […] Thermo Scientific Pierce, Canada)[49]. […] The γ emission was quantified using a γ-counter 1470 Wizard from PerkinElmer (Waltham) (80% efficiency). […] All binding data were calculated and plotted using GraphPad Prism 8 (La Jolla, CA) and represent the mean ± SEM of three replicates."}, "[2]": {"assay": "Apelinergic stability in human plasma", "assay_type": "in vitro ADME", "conditions": "27 μL plasma + 6 μL 1 mM aqueous peptide, 37 °C, 0, 0.5, 1, 2, 4, 6 h, UPLC-MS, mean ± SEM", "method": "(§1) Additional extraction on […] column (Phenomenex, Torrance, CA, USA) with overnight freeze-drying was mandatory for samples used for ELA measurements. […] LS-F25717; […] ELA was quantified using a commercially available ELISA kit (Peninsula Laboratories International; S-1508; CA, USA) with a measurement range of 0-100 ng/mL. […] Proteolytic degradation was stopped by adding 140 μL of 50% acetonitrile, 50% ethanol, and 0.25 mM N, N-dimethylbenzamide at 0, 0.5, 1, 2, 4, or 6 h. […] Next, the reaction mixture was diluted with 80 μL of water and analyzed overnight with an Acquity class H ultra-performance liquid chromatography-mass spectrometry (UPLC-MS) system from Waters (Milford, MA, USA) (column: Acquity UPLC CSH C18, 2.1 mm × 50 mm, packed with 1.7 μm particles). Results were expressed as a percentage of the initial zero-time spike area."}, "[3]": {"tested_on": "sheep APJ", "assay": "BRET assay for β-arrestin-2 recruitment in HEK293 cells expressing sheep APJ", "assay_type": "cell-based, sheep (Ovis aries)", "conditions": "BRET2, HEK293 cells with sheep APJ, 30 min stimulation at 37 °C, n = 3", "method": "(§2) BRET experiments were performed as previously described. In brief, HEK293 cells were transfected with plasmids encoding sheep APJ, Gαi1-RlucII ([…]β1 (from cDNA.org) (for the BRET-based Gαi1 activation assay) or encoding sheep APJ-GFP10 and RlucII-β-arrestin2 (for the BRET-based β-arrestin-2 recruitment assay)[50]. To perform the BRET assays, 50,000 cells/well were transferred into white 96-well plates (BD Bioscience, Mississauga, Canada) and incubated at 37 °C overnight. […] After stimulation, 5 μM coelenterazine 400A was added to each well, and the plate was read on a GeniosPro plate reader using the BRET2 filter set (Tecan, Austria). The BRET2 ratio was calculated as […]."}, "[4]": {"assay": "Apelinergic stability in sheep plasma", "assay_type": "in vitro ADME", "conditions": "sheep plasma of baseline and shock time points (n = 18); 27 μL plasma + 6 μL 1 mM aqueous peptide, 37 °C, 0 to 6 h, UPLC-MS", "method": "as §1"}, "[5]": {"tested_on": "sheep with fecal peritonitis-induced septic shock", "assay": "Hemodynamic and renal dose-response to infusion in sheep with fecal peritonitis-induced septic shock", "assay_type": "in vivo", "method": "The day before surgery, autologous stool was retrieved for treatment of the sheep selected for fecal peritonitis induction and mixed overnight in 0.9% normal saline (NS) and 5% D-glucose at 37 °C. The animals were fasted overnight. On the morning of the day of surgery, sheep received premedication to ease animal handling and intubation (i.e., intramuscular injections of 0.1 mg/kg atropine and 10 mg/kg ketamine) before routing to the operating room for insertion of an external jugular vein catheter and administration of a 500 mL bolus of Ringer’s lactate (RL). Sheep were then continuously infused with RL (3 mL/kg/h) and 5% D-glucose (2 mL/kg/h). Tracheal intubation (7–8 Fr) was performed in a caddy under isoflurane (1–2%) mask inhalation and by an anterior approach. Sheep were then placed in the supine position on heating pads before ventilator connection (Aestiva 15, Datex-Ohmeda, USA). […]\n(§3) Baseline hemodynamic parameters and vital sign measurements (HR: heart rate, MAP: mean arterial pressure, SVR: systemic vascular resistance, CVP: central venous pressure, PAOP: pulmonary artery occlusion pressure and wedge pressure), dP/dt max and min, LV end-systolic pressure (LVESP), CO, stroke volume (SV), GEDV, and extravascular lung water (EVLW) were then recorded. Blood temperature, baseline central venous O2 saturation (ScvO2), and arterial blood gas (RapidLab® 348, Siemens Healthcare Diagnostics, Montreal, Qc, Canada) and lactate levels (Lactate Plus, Nova Biomedical, Waltham, MA, USA) were also monitored. A slightly modified sheep SOFA[46] score was calculated after reached shock criteria defining the “shock” time point and before euthanasia named the “final” time points, defined as a MAP below 65 mmHg for level 1 of the cardiovascular system assessment and assuming a constant level 3 of the central nervous system (Glasgow score 6–9) at “shock”. […]\nAfter 2 g/kg autologous stool slurry was injected into both intra-peritoneal (i.p.) tubes, RL and 5% D-glucose infusions were stopped, and all the above parameters were monitored every 30 min. […]"}, "[6]": {"tested_on": "healthy sheep", "assay": "Hemodynamic and diuretic dose-response to infusion in healthy sheep", "assay_type": "in vivo", "method": "This study was approved by our institutional ethics review board (CFPA: Comité Facultaire de Protection des Animaux, #023-18BR). Thirty-six male Canadian Arcott sheep (33 ± 3 kg, 3 to 4 months old;) were included in this study according to the Animal Research: Reporting of In Vivo Experiments (ARRIVE) guidelines and received care in compliance with the Canadian Council of Animal Care and National Institutes of Health (NIH) guidelines. Animals were housed for at least 48 h before the experiment in dedicated accommodations and bedding.\nThe day before surgery, autologous stool was retrieved for treatment of the sheep selected for fecal peritonitis induction and mixed overnight in 0.9% normal saline (NS) and 5% D-glucose at 37 °C. The animals were fasted overnight. On the morning of the day of surgery, sheep received premedication to ease animal handling and intubation (i.e., intramuscular injections of 0.1 mg/kg atropine and 10 mg/kg ketamine) before routing to the operating room for insertion of an external jugular vein catheter and administration of a 500 mL bolus of Ringer’s lactate (RL). […]\nas §3"}, "[7]": {"tested_on": "sheep APJ", "assay": "BRET assay for Gαi1 activation in HEK293 cells expressing sheep APJ", "assay_type": "cell-based, sheep (Ovis aries)", "conditions": "BRET2, HEK293 cells with sheep APJ, 5 min stimulation at 37 °C, n = 3", "method": "as §2"}},
  "data": [
    {"smiles": "CSCC[C@H](NC(=O)[C@@H](NC(=O)[C@H](CC(C)C)NC(=O)[C@H](CC(N)=O)NC(=O)[C@@H](NC(=O)[C@@H]1CCCN1C(=O)[C@H](CCCNC(=N)N)NC(=O)[C@@H](N)CCC(N)=O)C(C)C)[C@@H](C)O)C(=O)N[C@@H](CCCNC(=N)N)C(=O)N[C@@H](CCCNC(=N)N)C(=O)N[C@@H](CCCCN)C(=O)N[C@@H](CC(C)C)C(=O)N[C@@H](CCCNC(=N)N)C(=O)N[C@@H](CCCCN)C(=O)N[C@@H](Cc1c[nH]cn1)C(=O)N[C@@H](CC(N)=O)C(=O)N[C@H]1CSSC[C@@H](C(=O)N[C@@H](CCSC)C(=O)N2CCC[C@H]2C(=O)N[C@@H](CC(C)C)C(=O)N[C@@H](Cc2c[nH]cn2)C(=O)N[C@@H](CO)C(=O)N[C@@H](CCCNC(=N)N)C(=O)N[C@H](C(=O)N2CCC[C@H]2C(=O)N[C@@H](Cc2ccccc2)C(=O)N2CCC[C@H]2C(=O)O)C(C)C)NC(=O)[C@H](CCCNC(=N)N)NC(=O)[C@H](CCCNC(=N)N)NC(=O)[C@H](CCC(N)=O)NC(=O)[C@H](CC(C)C)NC1=O", "note": "[ELA, Elabela]", "values": [
      {"measurement": "affinity for sheep APJ", "setting": "[1]", "result": "similar"},
      {"measurement": "half-life", "setting": "[2]; plasma of patients with sepsis/septic shock (n = 22)", "result": "1.15 ± 0.2", "unit": "h"},
      {"measurement": "half-life", "setting": "[2]; plasma, plasma of healthy volunteers (n = 10)", "result": "4.3 ± 0.75", "unit": "h"},
      {"measurement": "potency and efficacy in β-arrestin-2 recruitment, compared with APLN-13", "setting": "[3]", "result": "lower potency and efficacy"},
      {"measurement": "plasma stability (residual percentage of non-degraded peptide)", "setting": "[4]", "result": "unaffected"},
      {"measurement": "cardiac output (CO)", "setting": "[5]; septic sheep after fluid resuscitation, 2.5 nMol/kg/h, mean ± SEM, n = 6/group", "result": "2.71 ± 0.41", "unit": "L/min"},
      {"measurement": "endpoint circulating levels of lactate, cortisol and Tn T", "setting": "[5]; septic sheep, at the end of the last d5 infusion, n = 6/group", "result": "neither APLN-13 nor ELA infusion impacted"},
      {"measurement": "FP-induced decreases of monitored hemodynamic parameters", "setting": "[5]; septic sheep, incremental doses 0.025 to 12.5 nmol/kg/h", "result": "failed to alleviate these decreases"},
      {"measurement": "mean arterial pressure (MAP)", "setting": "[6]; 6.25 nMol/kg/h, mean ± SEM, n = 6/group", "result": "65.4 ± 8.1", "unit": "mmHg"},
      {"measurement": "systemic vascular resistance", "setting": "[6]; incremental doses 0.025 to 12.5 nmol/kg/h", "result": "not significantly impacted"},
      {"measurement": "heart rate (HR) and global end-diastolic volume (GEDV)", "setting": "[6]; incremental doses 0.025 to 12.5 nmol/kg/h, PiCCO", "result": "unchanged"},
      {"measurement": "potency in Gαi1 activation, compared with APLN-13", "setting": "[7]", "result": "lower potency"}
    ]}
  ]
}
